Counter-ions that a name gives are not always drawn. Like-named read-outs stand apart in the source and are kept apart here.
Assays:
LSD1 = LSD1 (Homo sapiens (Human), UniProt O60341); assay: LSD1 enzyme activity detection (HTRF); format: biochemical; details: read-out: Inhibition of enzymatic activity of LSD1 IC50
NCI-H1417 cells = assay: In vitro cell proliferation detection (CellTiter-Glo, 7 days); format: cell-based; details: NCI-H1417 cells, 7 days, CellTiter-Glo, read-out: NCI-H1417 proliferation inhibition IC50

Row | SMILES | IC50 (NCI-H1417 cells; Homo sapiens, 168 h) | IC50 (LSD1; HTRF, H3K4me1 substrate) | IC50 (LSD1) | IC50 (NCI-H1417 cells)
1 | Cc1noc2cc(-c3oc(C(=O)N4C5CCC4CC(N)C5)cc3-c3ccc(C#N)c(F)c3)c(F)cc12 (stereo not shown) [Example 219, 4-(5-(3-amino-8-azabicyclo[3.2.1]octane-8-carbonyl)-2-(5-fluoro-3-methylbenzo[d]isoxazol-6-yl)furan-3-yl)-2-fluorobenzonitrile hydrochloride] | 0.0953 µM | – | 0.0073 ± 0.00046 µM | –
2 | N#CCn1ncc2cc(F)c(-c3sc(C(=O)N4C5CCC4CC(N)C5)nc3-c3ccc(C#N)c(F)c3)cc21 (stereo not shown) [Example 221, 4-(2-(3-amino-8-azabicyclo[3.2.1]octan-8-carbonyl)-5-(1-(cyanomethyl)-5-fluoro-1H-indazol-6-yl)thiazol-4-yl)-2-fluorobenzonitrile hydrochloride] | 0.0298 µM | 0.01 ± 0.0032 µM | – | –
3 | Cc1noc2cc(-c3oc(C(=O)N4C5CCC4CC(N)C5)nc3-c3ccc(C#N)c(F)c3)c(F)cc12 (stereo not shown) [Example 222, 4-(2-(3-amino-8-azabicyclo[3.2.1]octane-8-carbonyl)-5-(5-fluoro-3-methylbenzo[d]isoxazol-6-yl)oxazol-4-yl)-2-fluorobenzonitrile hydrochloride] | 0.041 µM | 0.0144 µM | – | –
4 | COc1ccc(-c2sc(N3CCC(N)CC3)nc2-c2ccc(C#N)c(F)c2)cc1O [Example 223, 4-(2-(4-aminopiperidin-1-yl)-5-(3-hydroxy-4-methoxyphenyl)thiazol-4-yl)-2-fluorobenzonitrile] | 0.00239 µM | 0.0001 ± 3e-05 µM | – | –
5 | O=C(c1cc(CN[C@@H]2C[C@H]2c2ccc(F)cc2)nc(-c2ccc(-n3cccn3)cc2)n1)N1CCOCC1 [Example 229] | 0.00205 µM | 0.013 µM | – | –
6 | O=C(O)C1CCN(C(=O)c2cc(CN[C@@H]3C[C@H]3c3ccc(F)cc3)nc(-c3ccc(-n4cccn4)cc3)n2)CC1 [Example 234] | 0.031 ± 0.008 µM | 0.165 ± 0.008 µM | – | –
7 | Cc1noc2cc(-c3nc(CN[C@@H]4C[C@H]4c4ccc(F)cc4)cc(C(=O)N4CCN(S(C)(=O)=O)CC4)n3)c(F)cc12 [Example 235] | 0.0983 µM | 0.285 µM | – | –
8 | O=C(NC1CCOCC1)c1cc(CN[C@@H]2C[C@H]2c2ccc(F)cc2)nc(-c2ccccc2)n1 [Example 237] | 0.0283 µM | 0.423 ± 0.023 µM | – | –
9 | O=C(c1cc(CN[C@@H]2C[C@H]2c2ccc(F)cc2)nc(-c2ccc(-n3ccnn3)cc2)n1)N1CCOCC1 [Example 242] | 0.00283 µM | 0.0496 µM | – | –
10 | O=C(NC1CCOCC1)c1cc(CN[C@@H]2C[C@H]2c2ccc(F)cc2)nc(-c2ccc(-n3ccnn3)cc2)n1 [Example 249] | 0.00111 µM | 0.0158 µM | – | –
11 | COc1ccc(C2CC2NCc2c(OC)cc(N3CCC(N)CC3)nc2-c2ccc(C#N)c(F)c2)cc1F (stereo not shown) [Example 252] | – | 0.0737 µM | – | > 1 µM
12 | CS(=O)(=O)N1CCN(C(=O)c2cc(CCN[C@@H]3C[C@H]3c3ccc(F)cc3)nc(-c3ccc(-n4cccn4)cc3)c2)CC1 [Example 255, (2-(4-(1H-pyrazol-1-yl)phenyl)-6-(2-(((1R,2S)-2-(4-fluorophenyl)cyclopropyl)amino)ethyl)pyridin-4-yl) (4-(methylsulfonyl)piperazin-1-yl)methanone] | 0.0291 µM | 0.172 µM | – | –
13 | CS(=O)(=O)N1CCN(C(=O)c2cc(CCN[C@@H]3C[C@H]3c3ccc(F)cc3)cc(-c3ccc(-n4cccn4)cc3)n2)CC1 [Example 256, (6-(4-(1H-pyrazol-1-yl)phenyl)-4-(2-(((1R,2S)-2-(4-fluorophenyl)cyclopropyl)amino)ethyl)pyridin-2-yl) (4-(methylsulfonyl)piperazin-1-yl)methanone] | 0.0108 µM | 0.0713 µM | – | –
14 | CS(=O)(=O)N1CCN(c2cc(CN[C@@H]3C[C@H]3c3ccc(F)cc3)nc(-c3ccc(C#N)cc3)n2)CC1 [Example 264, 4-(4-((((1R,2S)-2-(4-fluoro-phenyl)cyclopropyl)amino)methyl)-6-(4-(methylsulfonyl)piperazin-1-yl)pyrimidin-2-yl)benzonitrile] | 0.0274 µM | 0.0876 µM | – | –

Now from value to compound, other results behind:

Row | IC50 (NCI-H1417 cells; Homo sapiens, 168 h) | IC50 (LSD1; HTRF, H3K4me1 substrate) | SMILES | IC50 (LSD1) | IC50 (NCI-H1417 cells)
15 | 0.0278 µM | 0.0521 µM | COc1ccc(-c2nc(CN[C@@H]3C[C@H]3c3ccc(F)cc3)cc(C(=O)N3CCN(S(C)(=O)=O)CC3)n2)cc1F [Example 225] | – | –
16 | 0.00253 µM | 0.0198 µM | CS(=O)(=O)N1CCN(C(=O)c2cc(CN[C@@H]3C[C@H]3c3ccc(F)cc3)nc(-c3ccc(-c4ccn[nH]4)cc3)n2)CC1 [Example 226] | – | –
17 | 0.0302 µM | 0.0225 µM | COC(=O)C1CCN(C(=O)c2cc(CN[C@@H]3C[C@H]3c3ccc(F)cc3)nc(-c3ccc(-n4cccn4)cc3)n2)CC1 [Example 231] | – | –
18 | 0.209 µM | 0.548 µM | CS(=O)(=O)N1CCN(C(=O)c2cc(CN[C@@H]3C[C@H]3c3ccc(F)cc3)nc(-c3ccn4ccnc4c3)n2)CC1 [Example 232] | – | –
19 | 0.00531 µM | 0.098 ± 0.001 µM | CS(=O)(=O)N1CCN(C(=O)c2cc(CN[C@@H]3C[C@H]3c3ccc(F)cc3)nc(-c3ccc(F)c(O)c3)n2)CC1 [Example 238, (2-(4-fluoro-3-hydroxy phenyl)-6-(((1R,2S)-2-(4-fluorophenyl)cyclo-propyl)amino)methyl) pyrimidin-4-yl)(4-(methyl-sulfonyl)piperazin-1-yl) methanone hydrochloride] | – | –
20 | 0.0295 µM | 0.77 µM | O=C(c1cc(CN[C@@H]2C[C@H]2c2ccc(F)cc2)nc(-c2cccnc2)n1)N1CCOCC1 [Example 240] | – | –
21 | 0.0126 µM | 0.0269 µM | COc1ccc(-c2nc(CN[C@@H]3C[C@H]3c3ccc(F)cc3)cc(C(=O)N3CCOCC3)n2)cc1O [Example 241] | – | –
22 | 0.00507 µM | 0.116 µM | O=C(c1cc(CN[C@@H]2C[C@H]2c2ccc(F)cc2)nc(-c2ccc(N3CCOCC3)cc2)n1)N1CCC(F)(F)CC1 [Example 244, (4,4-difluoropiperidin-1-yl)(6-(((1R,2S)-2-(4-f1uorophenyl)cyclopropyl)amino)methyl)-2-(4-morpholinophenyl) pyrimidin-4-yl)methanone hydrochloride] | – | –
23 | 0.00198 µM | 0.0391 µM | O=C(c1cc(CN[C@@H]2C[C@H]2c2ccc(F)cc2)nc(-c2ccc(N3CCOCC3)cc2)n1)N1CCOCC1 [Example 245, (6-((1R,2S)-2-(4-fluorophenyl)cyclopropyl)amino)methyl)-2-(4-morpholinophenyl) pyrimidin-4-yl) (morpholino)methanone hydrochloride] | – | –
24 | 0.00651 µM | 0.0658 µM | COc1ccc(-c2nc(CN[C@@H]3C[C@H]3c3ccc(F)cc3)cc(C(=O)N3CCC(F)(F)CC3)n2)cc1O [Example 247] | – | –
25 | 0.00298 µM | 0.14 µM | O=C(c1cc(CN[C@@H]2C[C@H]2c2ccc(F)cc2)nc(-c2ccc(-n3ccnn3)cc2)n1)N1CCC(F)(F)CC1 [Example 248, (2-(4-(1H-1,2,3-triazol-1-yl)phenyl)-6-((((1R,2S)-2-(4-fluorophenyl)cyclo-propyl)amino)methyl)pyrimidin-4-yl)(4,4-difluoropiperidin-1-yl) methanone] | – | –
26 | 0.0897 µM | 0.232 µM | N#Cc1ccc(-c2nc(CCCN[C@@H]3C[C@H]3c3ccc(F)cc3)cc(C(=O)N3CCC(F)(F)CC3)n2)cc1 [Example 258, 4-(4-(4,4-difluoropiperidine-1-carbonyl)-6-(3-(((1R,2S)-2-(4-fluorophenyl)cyclopropyl)amino)propyl)pyrimidin-2-yl)benzonitrile hydrochloride] | – | –
